Patent publication US20250304633A1, “PEPTIDE HAVING ANTIMICROBIAL ACTIVITY” (CABOSSE NATURALS NV, priority 2022, published 2025)
Ends that are not written are not given here.

Experiments:
Assay type in all cases: cell-based
Pantoea agglomerans = tested on: Pantoea agglomerans
Protocol: (§1) The antimicrobial potential of the peptide described herein was compared with the activity of, two other AMPs, TcAMP1 and TcAMP2 as discussed in WO1998027805, and antibiotics or fungicides. Comparative MIC assays were carried out against several bacterial and fungal species (Table 1).
(§2) Peptides according to SEQ ID N° 1, SEQ ID N° 4, and SEQ ID N° 5 were serially diluted in order to create a concentration sequence ranging from 0.39 μg/ml to […].
(§3) Pantoea, Staphylococcus, and Listeria were cultured in Trypticase Soy Broth (TSY) medium consisting of 1.7% casein peptone, 0.3% soy peptone, 0.25% glucose, 0.5% NaCl, 0.25% K2HPO4 and optionally 1.5% agar. Candida cells were cultured in Yeast Extract Peptone Dextrose (YPD) broth medium consisting of 1% yeast extract, 2% peptone, 2% glucose, and optionally 2% agar. Ceratocystis, Botrytis, Leptosphaeria, Mycosphaerella, Sclerotinia, and Verticillium were cultured in Potato Dextrose Agar (PDA) medium consisting of 2.4% Difco pre-mix broth and optionally 1.5% agar.
(§4) For the MIC assay bacteria and fungi were grown on agar plates with their respective media. Pre-cultures were prepared by inoculating either single bacterial colonies or small pieces of fungi in 5 ml of the respective liquid medium. The optical density (OD) at 600 nm was measured after one to five days and adjusted to an OD600 of 1. This cell suspension was used to prepare 1:500 dilutions, corresponding to approximately 2×10^6 microbial cells per ml.
(§5) To evaluate MICs, 96-well plates were prepared with the test antimicrobial peptides. Each well contained 100 μl microbial cell culture, 90 μl culture medium, and 10 μl peptide or control at the corresponding dilution. The plates were incubated overnight (ON) at the optimal growth temperature for each tested organism. Results were visually evaluated and MICs determined based on growth or no-growth.
(§6) MIC assays were conducted in at least two independent replicates and with different peptide starting concentrations.

Ceratosystis paradoxa = tested on: Ceratosystis paradoxa
Protocol: as §1, §2, §3, §4, §5, §6

Listeria monocytogenes = tested on: Listeria monocytogenes
Protocol: as §1, §2, §3, §4, §5, §6

[1] = tested on: Staphylococcus aureus MRSA
Protocol: as §1, §2, §3, §4, §5, §6

Leptosphaeria maculans = tested on: Leptosphaeria maculans
Protocol: as §1, §2, §3, §4, §5, §6

Verticillium dahliae = tested on: Verticillium dahliae
Protocol: as §1, §2, §3, §4, §5, §6

Botrytis cinerea = tested on: Botrytis cinerea
Protocol: as §1, §2, §3, §4, §5, §6

Candida albicans = tested on: Candida albicans
Protocol: as §1, §2, §3, §4, §5, §6

Sclerotinia sclerotiorum = tested on: Sclerotinia sclerotiorum
Protocol: as §1, §2, §3, §4, §5, §6

Mycosphaerella pinodes = tested on: Mycosphaerella pinodes
Protocol: as §1, §2, §3, §4, §5, §6

tested fungal species = experiment: MIC assays, all tested fungal species; conditions: all the tested fungal species
Protocol: as §1, §2, §3
For the MIC assay bacteria and fungi were grown on agar plates with their respective media. […] The optical density (OD) at 600 nm was measured after one to five days and adjusted to an OD600 of 1. […]
To evaluate MICs, 96-well plates were prepared with the test antimicrobial peptides. […] Results were visually evaluated and MICs determined based on growth or no-growth. […]

For “YGRKQYERDPRQQYEQCQRRCESEATEEREQEQCEQRCEREYKEQQRQQEEELQRQ (cysteines drawn unpaired) [SEQ ID No 1]”, the Minimal inhibitory concentration (Pantoea agglomerans) was 2.5 µg/mL, the Minimal inhibitory concentration (Ceratosystis paradoxa) was 1.9 µg/mL and the Minimal inhibitory concentration (Listeria monocytogenes) was 1.6 µg/mL. The Minimal inhibitory concentration [1] was 3.2 µg/mL, the Minimal inhibitory concentration (Leptosphaeria maculans) was 12.5 µg/mL and the Minimal inhibitory concentration (Verticillium dahliae) was 3.85 µg/mL. The Minimal inhibitory concentration (Botrytis cinerea) was 3.5 µg/mL, the Minimal inhibitory concentration (Candida albicans) was 3.85 µg/mL and the Minimal inhibitory concentration (Sclerotinia sclerotiorum) was 10.4 µg/mL. For the same sequence, the Minimal inhibitory concentration (Mycosphaerella pinodes) was 2.8 µg/mL and the “inhibitory effects in MIC assays” value (tested fungal species) was “inhibitory effects against all the tested fungal species”.
